Test results published in US20180244629A1, “Compounds And Compositions For The Treatment Of Cancer” (The Broad Institute, Inc., priority 2013, published 2018).
Like-named read-outs stand apart in the source and are kept apart here.

Experiments:
HeLa cells = assay: HeLa Cytotoxicity Assay (Cell Titer Glo viability); format: cell-based
Description: HeLa Cytotoxicity Assay Protocol: Day 0: HeLa cells (ATCC, HeLa CCL-2) are grown to 95% confluence in DMEM, 10% FBS/Pen/Strep/L-Glutamine. Day 1: Plate cells (1000 per well) in 40 μl culturing media using Corning 384-well plates (3570), incubate in standard TC conditions (5% CO2, 95% humidity, 37 degrees C.) for 24 hours. Day 2: Dilute each concentration of a half-log serial dilution of compound (1 mM-100 nM) 1:200 in culturing media and add 10 μl (50 μl total volume) of that dilution to designated wells (8 replicates per concentration). The final dilution will be 1000×(1 μM-100 pM). Day 4: Remove plate from incubator to cool for 20 minutes to room temperature. Add 40 μl of a 25% Promega Cell Titer Glo solution (diluted 1:3 with room temperature PBS) with Thermo combi or multichannel and incubate for 10 minutes. Read on Perkin-Elmer EnVision with US LUM settings for 0.1 second per well.
(§1) Compounds as shown were tested against various cells lines in vitro according to the methods described herein. Cells are plated in 384-well format in a total volume of 40 μl. Indicated compound concentrations were added 24 hrs after plating the cells. After 48 hrs cell viability was determined using Cell Titer Glo® Luminescent Cell Viability Assay.
as §1, with “Known PDE3 inhibitors” for “Compounds”, “shown below” for “shown”

A549 cells = assay: A549 Cytotoxicity Assay (Cell Titer Glo viability); format: cell-based
Description: A549 Cytotoxicity Assay Protocol. Day 0: A549 cells (ATCC, A549 CCL-185) are grown to 95% confluence in RPMI, 10% FBS/Pen/Strep/L-Glutamine. Day 1: Plate cells (1000 per well) in 40 μl culturing media using Corning 384-well plates (3570), incubate in standard TC conditions (5% CO2, 95% humidity, 37° C.) for 24 h. Day 2: Dilute each concentration of a half-log serial dilution of compound (1 mM-100 nM) 1:200 in culturing media and add […] (50 μl total volume) of that dilution to designated wells (8 replicates per concentration). The final dilution will be 1000×([…]). Day 4: Remove plate from incubator to cool for 20 minutes to room temperature. Add 40 μl of a 25% Promega Cell Titer Glo solution (diluted 1:3 with room temperature PBS) with Thermo combi or multichannel and incubate for 10 min. Read on Perkin-Elmer EnVision with US LUM settings for 0.1 second per well.
A549 Assay Protocol. Day 0: A549 cells (ATCC) are grown in a Triple flask (NUNC) to ˜95% confluence (TrypLE Phenol Red free) and resuspended for dispensing at 25,000 cells/mL of DMEM, 10% FBS/Pen/Strep/L-Glutamine (using the TAP Compact SelecT automated cell culture system). Day 1: Plate cells at 1000 per well in 40 uL media (DMEM/10% FBS/Pen/Strep/L-Glutamine) using Corning 8867BC 384 well plates; incubate in standard TC conditions (5% CO2; 95% humidity, 37° C.) for 24 hours (Compact SelecT). Day 2: Add 100 nL compound per well at dose into 40 uL assay volume using a pin tool (CyBi Well). Pin 100 nL cytotoxic compounds, mitoxantrone (CID 4212) to positive control wells to a final concentration of 10 μM (100 nL 4 mM DMSO stock). Incubate for […] at 37° C. in Liconic incubator, 95% humidity 5% CO2. Day 4: Remove plate from incubator, cool for 15 minutes to room temperature; add 20 μL 50% Promega CellTiterGlo (diluted 1:1 with PBS, pH 7.4) with Thermo Combi. Incubate at room temperature for 5 minutes. Read plates on Perkin-Elmer EnVision with standard luminescence settings for 0.1 sec per well.
as §1
as §1, with “Known PDE3 inhibitors” for “Compounds”, “shown below” for “shown”

[1] = Homo sapiens, HeLa, 48 h, Cell Titer Glo, read-out: EC50 HeLa
[2] = Homo sapiens, A549, 48 hrs, Cell Titer Glo, read-out: EC50 A549
[3] = Homo sapiens, HeLa, Mean ± SD (n = 3), read-out: Potency (EC50 nM) HeLa
[4] = Homo sapiens, A549, Mean ± SD (n = 3), read-out: Potency (EC50 nM) A549
[5] = Homo sapiens, HeLa, n = 2, read-out: Potency (EC50) HeLa
[6] = Homo sapiens, A549, n = 2, read-out: Potency (EC50) A549
[7] = 48 hrs, Cell Titer Glo, read-out: EC50 HeLa
[8] = Mean ± SD (n = 3), read-out: Potency (EC50 nM) HeLa

Compound | EC50 (HeLa cells; [3]) [nM] | EC50 (A549 cells; [4]) [nM] | other results
C[C@@H]1CC(=O)NN=C1c1ccc(N)c(Br)c1 | – | – | EC50 (HeLa cells; [1]): > 10000 nM; EC50 (A549 cells; [2]): > 10000 nM
CCN(CC)c1ccc(C2=NNC(=O)CC2C)cc1 (centres unmarked) | 8.8 ± 2.3 | > 10000 | –
CCN(CC)c1ccc(C2=NNC(=O)C[C@H]2C)cc1 | 3.8 ± 0.8 | > 10000 | –
CCNc1ccc(C2=NNC(=O)C[C@H]2C)cc1 | 71 ± 7 | > 10000 | –
CCN(CC)c1ccc(C2=NNC(=O)CC2C)cc1N (centres unmarked) | 240 ± 60 | > 10000 | –
CCN(CC)c1ccc(C2=NNC(=O)CC2C)cc1NC(C)=O (centres unmarked) | > 1000 | > 10000 | –
CC1CC(=O)NN=C1c1ccc(N2CCOCC2)cc1 (centres unmarked) | 36 ± 9 | > 10000 | –
CC1CC(=O)NN=C1c1ccc(N2CCOCC2)c(F)c1 (centres unmarked) | 2.8 ± 0.7 | > 10000 | –
C[C@H]1CC(=O)NN=C1c1ccc(N2CCOCC2)c(F)c1 | > 1000 | > 10000 | –
CC(=O)N1CCN(c2ccc(C3=NNC(=O)C[C@H]3C)cc2F)CC1 | > 1000 | > 10000 | –
C[C@@H]1CC(=O)NN=C1c1ccc(N2CCN(C)CC2)cc1 | 310 ± 120 | > 10000 | –
C[C@@H]1CC(=O)NN=C1c1ccc(N2CCCCC2)cc1 | 3.9 ± 0.6 | > 10000 | –
C[C@@H]1CC(=O)NN=C1c1ccc(-n2cnnc2)cc1 | > 1000 | > 10000 | –
Cc1nc2ccc(C3=NNC(=O)C[C@H]3C)cc2[nH]1 | > 1000 | > 10000 | –
CC(=O)Nc1ccc(C2=NNC(=O)C[C@H]2C)cc1Cl | 30 | > 10000 | –
CC(=O)Nc1ccc(C2=NNC(=O)C[C@H]2C)cc1F | > 1000 | > 10000 | –
C#Cc1cc(C2=NNC(=O)C[C@H]2C)ccc1NC(C)=O | 65 ± 10 | > 10000 | –
CC(=O)Nc1ccc(C2=NNC(=O)C[C@H]2C)cc1C(C)=O | 130 ± 10 | > 10000 | –
CC(=O)Nc1ccc(C2=NNC(=O)C[C@H]2C)cc1N | > 1000 | > 10000 | –
C[C@@H]1CC(=O)NN=C1c1ccc(N2CCCOC2=O)cc1 | > 1000 | > 10000 | –
C[C@@H]1CC(=O)NN=C1c1ccc(N2CCCCS2(=O)=O)cc1 | 330 ± 6 | > 10000 | –

Compound | EC50 (HeLa cells; [3]) [nM] | EC50 (A549 cells; [4]) [nM] | other results
C[C@@H]1CC(=O)NN=C1c1ccccc1 | 430 ± 50 | > 10000 | –
CC1CC(=O)NN=C1c1ccc(F)cc1 (centres unmarked) | 410 ± 270 | > 10000 | –
C[C@@H]1CC(=O)NN=C1c1ccc(Cl)cc1 | 33 ± 5 | > 10000 | –
CC1CC(=O)NN=C1c1ccc(F)c(F)c1 (centres unmarked) | 64 ± 3 | > 10000 | –
C[C@H]1CC(=O)NN=C1c1ccc(F)c(F)c1 | > 1000 | > 10000 | –
C[C@@H]1CC(=O)NN=C1c1ccc(I)cc1 | 7.1 ± 0.8 | > 10000 | –
C/C=C/c1ccc(C2=NNC(=O)C[C@H]2C)cc1 | 8.8 ± 1.1 | > 10000 | –
CCCc1ccc(C2=NNC(=O)C[C@H]2C)cc1 | 16 ± 1 | > 10000 | –
CC1CC(=O)NN=C1c1ccc(C2=CCCCC2)cc1 (centres unmarked) | 2.2 ± 0.4 | > 10000 | –
CC(=O)Nc1ccc(-c2n[nH]c(=O)cc2C)cc1 | > 1000 | > 10000 | –
CC1(C)C(=O)NN=C1c1ccc(N)cc1 | > 1000 | > 10000 | –
CCN(CC)c1ccc(C2=NNC(=O)C2(C)C)cc1 | > 1000 | > 10000 | –
CC1(C)C(=O)NN=C1c1ccc(N2CCOCC2)cc1 | > 1000 | > 10000 | –
CC1(C)C(=O)NN=C1c1ccc(Cl)cc1 | > 1000 | > 10000 | –
O=C1CC2CCc3cc(N4CCOCC4)ccc3C2=NN1 (centres unmarked) | > 1000 | > 10000 | –
CCN(CC)c1ccc(-c2nc(C(C)C)no2)cc1[N+](=O)[O-] | – | – | EC50 (HeLa cells; [5]): > 10000 nM; EC50 (A549 cells; [6]): > 10000 nM
CC1CC(=O)N(c2ccccc2)N=C1c1ccc(Cl)cc1 (centres unmarked) | – | – | EC50 (HeLa cells; [5]): > 10000 nM; EC50 (A549 cells; [6]): > 10000 nM
CC1CC(=O)NN=C1c1cccs1 (centres unmarked) | – | – | EC50 (HeLa cells; [5]): > 10000 nM; EC50 (A549 cells; [6]): > 10000 nM
O=C1CC(c2ccccc2)=NN1 | – | – | EC50 (HeLa cells; [5]): > 10000 nM; EC50 (A549 cells; [6]): > 10000 nM
CCN(CC)c1ccc(C(=O)Nc2ccccc2)cc1[N+](=O)[O-] | – | – | EC50 (HeLa cells; [5]): > 10000 nM; EC50 (A549 cells; [6]): > 10000 nM
Cc1ccc(CCC(=O)N2CCN(c3ccc(C4=NNC(=O)CC4C)cc3)CC2)cc1 (centres unmarked) | – | – | EC50 (HeLa cells; [5]): > 10000 nM; EC50 (A549 cells; [6]): > 10000 nM

Compound | EC50 (HeLa cells; [3]) [nM] | EC50 (A549 cells; [4]) [nM] | other results
CC1CC(=O)NN=C1c1ccc(N2CCN(C(=O)Cc3ccc(Cl)cc3Cl)CC2)cc1 (centres unmarked) | – | – | EC50 (HeLa cells; [5]): > 10000 nM; EC50 (A549 cells; [6]): > 10000 nM
CC(=O)Nc1ccc(C2=NNC(=O)CC2C)cc1 (centres unmarked) [drawing 139] | – | – | EC50 (HeLa cells; [7]): > 10000 nM; EC50 (A549 cells; 48 hrs, Cell Titer Glo, read-out: EC50 A549): > 10000 nM
CC(=O)Nc1ccc(C2=NNC(=O)C[C@H]2C)cc1[N+](=O)[O-] [drawing 143] | – | – | EC50 (HeLa cells; [1]): 0.00608 nM; EC50 (A549 cells; [2]): > 10000 nM
CC(=O)Nc1ccc(C2=NNC(=O)C[C@H]2C)cc1 [drawing 144] | – | – | EC50 (HeLa cells; [1]): > 10000 nM; EC50 (A549 cells; [2]): > 10000 nM
CC(=O)Nc1ccc(C2=NNC(=O)C[C@H]2C)cc1Br [drawing 146] | – | – | EC50 (HeLa cells; [1]): 42.1 nM; EC50 (A549 cells; [2]): > 10000 nM
CC(=O)Nc1ccc(C2=NNC(=O)CC2C)cc1 (centres unmarked) [drawing 148] | – | – | EC50 (HeLa cells; [7]): > 1000 nM; EC50 (A549 cells; [2]): > 10000 nM
Cc1cc(=O)[nH]nc1-c1ccc(N)cc1 [drawing 149] | – | – | EC50 (HeLa cells; [1]): > 1000 nM; EC50 (A549 cells; [2]): > 10000 nM
CCN(CC)c1ccc(-c2n[nH]c(=O)cc2C)cc1 [drawing 150] | – | – | EC50 (HeLa cells; [1]): > 1000 nM; EC50 (A549 cells; [2]): > 10000 nM
CCN(CC)c1ccc(C2=NNC(=O)CC2C)cc1[N+](=O)[O-] (centres unmarked) [drawing 154] | – | > 10000 | –
CCN(CC)c1ccc(C2=NNC(=O)C[C@H]2C)cc1[N+](=O)[O-] [drawing 155] | 3.8 ± 1.1 | > 10000 | –
CCNc1ccc(C2=NNC(=O)C[C@H]2C)cc1[N+](=O)[O-] [drawing 156] | 1.1 ± 0.5 | > 10000 | –
CCN1N=C(c2ccc(N(CC)CC)cc2)[C@H](C)CC1=O [drawing 160] | > 1000 | > 10000 | –
C[C@@H]1CC(=O)NN=C1c1ccc(N2CCOCC2)cc1 [drawing 164] | 13 ± 2 | > 10000 | –
C[C@@H]1CC(=O)NN=C1c1ccc(N2CCOCC2)c(F)c1 [drawing 166] | 1.6 ± 0.2 | > 10000 | –
CC(=O)Nc1ccc(C2=NNC(=O)CC2C)cc1 (centres unmarked) [drawing 173] | > 1000 | > 10000 | –
CC(=O)Nc1ccc(C2=NNC(=O)C[C@H]2C)cc1 [drawing 174] | > 1000 | > 10000 | –
CC(=O)Nc1ccc(C2=NNC(=O)C[C@H]2C)cc1Br [drawing 175] | 21 ± 1 | > 10000 | –
CC(=O)Nc1ccc(C2=NNC(=O)C[C@H]2C)cc1[N+](=O)[O-] [drawing 176] | 4.9 ± 1.1 | > 10000 | –
C[C@@H]1CC(=O)NN=C1c1ccc(N2CCCC2=O)cc1 [drawing 182] | – | > 10000 | EC50 (HeLa cells; [8]): 140 ± 50 nM
C[C@@H]1CC(=O)NN=C1c1ccc(N2CCCC2=O)cc1 [drawing 183] | – | – | EC50 (HeLa cells; [8]): > 1000 nM; EC50 (A549 cells; Mean ± SD (n = 3), read-out: Potency (EC50 nM) A549): > 10000 nM
C[C@@H]1CC(=O)NN=C1c1ccc(F)c(F)c1 [drawing 190] | 22 ± 5 | > 10000 | –
